Experimental data as given in PubChem BioAssay AID2060884 (Molecular Pharmacology Branch, DTP, NCI, 2025).

Tested on: NCI-H929 complex spheroids, viability % test/control
Test: Anticancer human tumor NCI-H929 cell line growth inhibition [RAS];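 further: compound exposure lasted seven days before viability was read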
Details: for IC50: curve of first compound; for viability, T/C: stronger effect = lower value
From the text: RAS pathway inhibitors in Combinations in Complex Spheroids
A high-throughput screen of multi-cell type tumor spheroids was designed to identify active combinations of RAS pathway inhibitors and targeted small molecules. Complex spheroids include a stromal component modeled by human endothelial cells (HUVEC) and fibroblasts modeled by human mesenchymal stem cells (MSCs). The concentration ranges selected for each drug and investigational agent were based upon clinically achievable concentrations if the clinical Cmax of the agent was known.
Compounds. The drugs and investigational agents: abemaciclib (NSC768073), cobimetinib (NSC768068), divarasib (GDC6063, NSC841802), docetaxel (NSC628503), GDC-1971 (RLY-1971, NSC841576), gemcitabine (NSC613327), inavolisib (NSC800729), ipatasertib (NSC767898), KB-0742 (NSC834161), MRTX-1133 (NSC836407), osimertinib (NSC779217), RMC-4630 (NSC839698), RMC-6236 (NSC851965), RMC-6291 (NSC852671), Ro-3306 (NSC812927), sapanisertib (NSC764658), SN-38 (NSC673596), staurosporine (NSC755774), SY5609 (NSC837396), and tovorafenib (DAY101, NSC766906), were obtained from the National Cancer Institute (NCI) Developmental Therapeutics Program Chemical Repository. The FDA-approved anticancer drug set is available from the NCI Developmental Therapeutics Program. […] The stock solutions were prepared in dimethyl sulfoxide (DMSO, Sigma-Aldrich, St. Louis, MO, cat. D2650) at 800-fold the tested concentration and stored at -70 degrees C prior to their use. All drugs and investigational agents were tested over a range starting from a high concentration at or near the clinical Cmax and decreasing in half-log increments. If the clinical Cmax for an agent had not been determined, the highest concentration tested was 10 microM.
Cell Culture. All cells were maintained in an incubator at 37 degrees C and 5% CO2 with 95% humidity. The PDC lines were cultured according to standard operating procedures established by the NCI PDMR. All PDCs were thawed and cultured in Matrigel-coated flasks prepared with a working solution of 1X Ham's F-12 nutrient mix, without supplementation (Invitrogen, Waltham, MA, cat. 11765054), 100 U/mL penicillin-streptomycin (Invitrogen, cat. 15140122), and 2.5% Matrigel (Corning Inc., Corning, NY, cat. 354248) for the first three passages. The 362531-283-R-J2-PDC and 782815-120-R-J1-PDC lines were cultured in 6C/Colon 1B media, which includes advanced DMEM/F-12 (Thermo Fisher Scientific, cat. 12634028), 10 mM HEPES (Thermo Fisher Scientific, cat. 15630080), 1X GlutaMAX supplement (Thermo Fisher Scientific, cat. 35050061), 0.1 mg/mL primocin (InvivoGen, San Diego, CA, cat. ant-pm-2), 10% defined fetal bovine serum, heat inactivated (HyClone Laboratories Inc., Logan, UT, cat. SH30070.03HI), 50% L-WRN conditioned media (ATCC, cat. CRL-3276), 1.25 mM N-Acetyl-L-cysteine (Sigma-Aldrich, cat. A9165), 10 mM nicotinamide (Sigma-Aldrich, cat. N0636), 1X B-27 supplement (Thermo Fisher Scientific, cat. 17504044), 1X N-2 supplement (Thermo Fisher Scientific, cat. 17502048), 50 ng/mL human EGF (Thermo Fisher Scientific, cat. PHG0311), and 10 microM Y-27632 dihydrochloride (Tocris Bioscience, cat. 1254). The K12877-001-R-J1-PDC line was cultured in 6I media, which includes all 6C/Colon 1B media plus 10 ng/mL human FGF-10 (PeproTech, cat. 100-26), 1 ng/mL human FGF-2 (PeproTech, cat. 100-18B), 1 µM prostaglandin E2 (Tocris Bioscience, cat. 2296), […] hydrocortisone (Sigma-Aldrich, cat. H4001), and […] bovine insulin (Sigma-Aldrich, cat. I6634). The K86415-001-R-J1-PDC line was cultured in 6D media, which includes all 6C/Colon 1B media components minus the L-WRN conditioned media. The 485176-168-R4-J1-PDC was cultured in PANC media, which includes all 6C/Colon 1B media plus 100 ng/mL human FGF-10 (PeproTech, cat. 100-26), 500 nM SB-431542 (Selleckchem, cat. S1067), and 10 nM gastrin (Tocris Bioscience, cat. 3006). […]

Question: What does the source list for Nc1ccn(C2OC(CO)C(O)C2(F)F)c(=O)n1 (centres undefined) + C=CC(=O)N1CCN(c2nc(OCC3CCCN3C)nc3c(F)c(-c4nc(N)cc(C)c4C(F)(F)F)c(Cl)cc23)C(C)C1?
Answer: IC50 (second compound 0.00316 µM): 18.4 nM; IC50 (second compound 0.01 µM): 18.4 nM; IC50 (second compound 0.0316 µM): 18.4 nM; IC50 (second compound 0.1 µM): 17.7 nM; IC50 (second compound 0.316 µM): 18.6 nM; IC50 (second compound 1 µM): 18.9 nM; viability, T/C (second compound 0.00316 µM, first compound 0.00316 µM): 102%; viability, T/C (second compound 0.00316 µM, first compound 0.01 µM): 106%; viability, T/C (second compound 0.00316 µM, first compound 0.0316 µM): 1.52%; viability, T/C (second compound 0.00316 µM, first compound 0.1 µM): 2.24%; viability, T/C (second compound 0.00316 µM, first compound 0.316 µM): 1.73%; viability, T/C (second compound 0.00316 µM, first compound 1 µM): 0.82%; viability, T/C (second compound 0.01 µM, first compound 0.00316 µM): 97.8%; viability, T/C (second compound 0.01 µM, first compound 0.01 µM): 111%; viability, T/C (second compound 0.01 µM, first compound 0.0316 µM): 1.3%; viability, T/C (second compound 0.01 µM, first compound 0.1 µM): 2.1%; viability, T/C (second compound 0.01 µM, first compound 0.316 µM): 1.62%; viability, T/C (second compound 0.01 µM, first compound 1 µM): 0.86%; viability, T/C (second compound 0.0316 µM, first compound 0.00316 µM): 94.8%; viability, T/C (second compound 0.0316 µM, first compound 0.01 µM): 114%; viability, T/C (second compound 0.0316 µM, first compound 0.0316 µM): 1.48%; viability, T/C (second compound 0.0316 µM, first compound 0.1 µM): 1.95%; viability, T/C (second compound 0.0316 µM, first compound 0.316 µM): 1.12%; viability, T/C (second compound 0.0316 µM, first compound 1 µM): 0.76%; viability, T/C (second compound 0.1 µM, first compound 0.00316 µM): 99.3%; viability, T/C (second compound 0.1 µM, first compound 0.01 µM): 97.3%; viability, T/C (second compound 0.1 µM, first compound 0.0316 µM): 1.86%; viability, T/C (second compound 0.1 µM, first compound 0.1 µM): 2.03%; viability, T/C (second compound 0.1 µM, first compound 0.316 µM): 1.73%; viability, T/C (second compound 0.1 µM, first compound 1 µM): 1%; viability, T/C (second compound 0.316 µM, first compound 0.00316 µM): 101%; viability, T/C (second compound 0.316 µM, first compound 0.01 µM): 114%; viability, T/C (second compound 0.316 µM, first compound 0.0316 µM): 1.08%; viability, T/C (second compound 0.316 µM, first compound 0.1 µM): 1.62%; viability, T/C (second compound 0.316 µM, first compound 0.316 µM): 1.46%; viability, T/C (second compound 0.316 µM, first compound 1 µM): 0.81%; viability, T/C (second compound 1 µM, first compound 0.00316 µM): 103%; viability, T/C (second compound 1 µM, first compound 0.01 µM): 118%; viability, T/C (second compound 1 µM, first compound 0.0316 µM): 1.88%; viability, T/C (second compound 1 µM, first compound 0.1 µM): 2.07%; viability, T/C (second compound 1 µM, first compound 0.316 µM): 0.99%; viability, T/C (second compound 1 µM, first compound 1 µM): 0.9%

Question: How did the IC50 (second compound 0.000949 µM) turn out when CC1(O)CCCC1n1c(=O)c(C(F)F)cc2cnc(NC3CCN(S(C)(=O)=O)CC3)nc21 (centres undefined) + CCn1c(-c2cc(N3CCN(C)CC3)cnc2C(C)OC)c2c3cc(ccc31)-c1csc(n1)CC(NC(=O)C1CC1C)C(=O)N1CCCC(N1)C(=O)OCC(C)(C)C2 was run?
Answer: The IC50 was 188 nM.

Question: And the IC50 (second compound 0.003 µM)?
Answer: The IC50 was 191 nM.

Question: And the IC50 (second compound 0.00949 µM)?
Answer: The IC50 was 200 nM.

Question: What about the IC50 (second compound 0.03 µM) of the same molecule?
Answer: Its IC50 is 57.5 nM.

Question: And the IC50 (second compound 0.0949 µM)?
Answer: The IC50 was less than 31.6 nM.

Question: And the IC50 (second compound 0.3 µM)?
Answer: The IC50 was less than 31.6 nM.

Question: What about the viability, T/C (second compound 0.000949 µM, first compound 0.0316 µM) of the same molecule?
Answer: The viability, T/C was 109%.

Question: What about the viability, T/C (second compound 0.000949 µM, first compound 0.1 µM) of the same molecule?
Answer: The viability, T/C was 106%.

Question: What about the viability, T/C (second compound 0.000949 µM, first compound 0.316 µM) of the same molecule?
Answer: Its viability, T/C is 3.79%.

Question: What about the viability, T/C (second compound 0.000949 µM, first compound 1 µM) of the same molecule?
Answer: The viability, T/C was 4.11%.

Question: And the viability, T/C (second compound 0.000949 µM, first compound 3.16 µM)?
Answer: The viability, T/C was 3.8%.

Question: What about the viability, T/C (second compound 0.000949 µM, first compound 10 µM) of the same molecule?
Answer: The viability, T/C was 0.15%.

Question: What about the viability, T/C (second compound 0.003 µM, first compound 0.0316 µM) of the same molecule?
Answer: Its viability, T/C is 103%.

Question: What about the viability, T/C (second compound 0.003 µM, first compound 0.1 µM) of the same molecule?
Answer: The viability, T/C was 115%.

Question: What about the viability, T/C (second compound 0.003 µM, first compound 0.316 µM) of the same molecule?
Answer: Its viability, T/C is 2.16%.

Question: And the viability, T/C (second compound 0.003 µM, first compound 1 µM)?
Answer: Its viability, T/C is 7.09%.

Question: And the viability, T/C (second compound 0.003 µM, first compound 3.16 µM)?
Answer: Its viability, T/C is 7.23%.

Question: What about the viability, T/C (second compound 0.003 µM, first compound 10 µM) of the same molecule?
Answer: Its viability, T/C is 0.06%.

Question: What about the viability, T/C (second compound 0.00949 µM, first compound 0.0316 µM) of the same molecule?
Answer: Its viability, T/C is 113%.

Question: What about the viability, T/C (second compound 0.00949 µM, first compound 0.1 µM) of the same molecule?
Answer: The viability, T/C was 117%.

Question: And the viability, T/C (second compound 0.00949 µM, first compound 0.316 µM)?
Answer: The viability, T/C was 4.34%.

Question: And the viability, T/C (second compound 0.00949 µM, first compound 1 µM)?
Answer: The viability, T/C was 14.1%.

Question: What about the viability, T/C (second compound 0.00949 µM, first compound 3.16 µM) of the same molecule?
Answer: The viability, T/C was 8.7%.

Question: And the viability, T/C (second compound 0.00949 µM, first compound 10 µM)?
Answer: The viability, T/C was 0.05%.

Question: What about the viability, T/C (second compound 0.03 µM, first compound 0.0316 µM) of the same molecule?
Answer: Its viability, T/C is 72.2%.

Question: And the viability, T/C (second compound 0.03 µM, first compound 0.1 µM)?
Answer: Its viability, T/C is 29.5%.

Question: What about the viability, T/C (second compound 0.03 µM, first compound 0.316 µM) of the same molecule?
Answer: The viability, T/C was 4.66%.

Question: What about the viability, T/C (second compound 0.03 µM, first compound 1 µM) of the same molecule?
Answer: The viability, T/C was 9.27%.

Question: What about the viability, T/C (second compound 0.03 µM, first compound 3.16 µM) of the same molecule?
Answer: Its viability, T/C is 2.06%.

Question: What about the viability, T/C (second compound 0.03 µM, first compound 10 µM) of the same molecule?
Answer: Its viability, T/C is 0.13%.

Question: What about the viability, T/C (second compound 0.0949 µM, first compound 0.0316 µM) of the same molecule?
Answer: Its viability, T/C is 6.97%.

Question: And the viability, T/C (second compound 0.0949 µM, first compound 0.1 µM)?
Answer: Its viability, T/C is 4.65%.

Question: What about the viability, T/C (second compound 0.0949 µM, first compound 0.316 µM) of the same molecule?
Answer: The viability, T/C was 3.2%.

Question: What about the viability, T/C (second compound 0.0949 µM, first compound 1 µM) of the same molecule?
Answer: Its viability, T/C is 2.92%.

Question: What about the viability, T/C (second compound 0.0949 µM, first compound 3.16 µM) of the same molecule?
Answer: The viability, T/C was 0.85%.

Question: What about the viability, T/C (second compound 0.0949 µM, first compound 10 µM) of the same molecule?
Answer: Its viability, T/C is 0.09%.

Question: What about the viability, T/C (second compound 0.3 µM, first compound 0.0316 µM) of the same molecule?
Answer: The viability, T/C was 3.5%.

Question: What about the viability, T/C (second compound 0.3 µM, first compound 0.1 µM) of the same molecule?
Answer: The viability, T/C was 2.32%.

Question: What about the viability, T/C (second compound 0.3 µM, first compound 0.316 µM) of the same molecule?
Answer: Its viability, T/C is 2.57%.

Question: What about the viability, T/C (second compound 0.3 µM, first compound 1 µM) of the same molecule?
Answer: Its viability, T/C is 1.68%.

Question: And the viability, T/C (second compound 0.3 µM, first compound 3.16 µM)?
Answer: Its viability, T/C is 0.72%.

Question: And the viability, T/C (second compound 0.3 µM, first compound 10 µM)?
Answer: The viability, T/C was 8.23%.
